Values quoted from earlier work in US20080014263A1, “Amorphous eprosartan mesylate and process for the preparation thereof” (Glenmark Pharmaceuticals Limited, priority 2006, published 2008).
Structures can show the parent of a compound that is named as a salt.

Settings: white to off-white free-flowing crystalline powder

## CCCCc1ncc(/C=C(\Cc2cccs2)C(=O)O)n1Cc1ccc(C(=O)O)cc1 [Eprosartan mesylate, monomethanesulphonate of (E)-2-butyl-1-(p-carboxybenzyl)-α-2-thienylmethylimidazole-5-acrylic acid]
ethanol
  solubility in ethanol: freely soluble
water
  solubility in water: insoluble
